Measurements from patent US20120003661A1, “METHODS AND DEVICES FOR THE SELECTIVE DETECTION OF MICROORGANISMS” (C3 JIAN, INC., priority 2010, published 2012).
“Also recorded” adds a separate entry of the source. Where two headings read alike, the source gives them in different places.

System: bacteria, fungi, and/or yeasts
Format: binding
[1] = microorganism(s) listed as target(s) of the targeting peptide, wrapped target lists given cell by cell
[2] = microorganism(s) the targeting peptide binds, as listed in Table 2
[3] = microorganism(s) that the targeting peptide binds, as listed in Table 2

PF-065 (LEKNTRDNYFIHAIDRIYINTSKGLFPESELVAWG)
Target(s) [1]: M. luteus, E. coli, P. aeruginosa,; also recorded: C. albicans, MRSA, S. pneumoniae,; also recorded: C. jeikeium, C. jejuni

1T-117 (GPGVVGPAPFSRLPAHALNL)
Target(s) [2]: S. mutans

1T-93 (AMRSVNQA)
Target(s) [2]: S. epidermidis, S. gordonii, S. mitis,; also recorded: S. mutans, S. oralis, S. sanguinis

1T-198 (MPVSKKRYMLSSAYATALGICYGQVATDEKESEITAIPDLLDYLSVEEYLL)
Target(s) [2]: P. gingivalis, S. epidermidis, S. gordonii,; also recorded: S. mitis, S. mutans, S. oralis,; also recorded: S. sanguinis

1T-24 (EEAEEKLAEVSQAVKRLVR)
Target(s) [2]: P. aeruginosa

PF-C131 (QWIVAKREIRMHIYCHISVIHVIIFFG)
Target(s) [3]: A. naeslundii, F. nucleatum, P. gingivalis,; also recorded: S. mutans

PF-124 (MADGQIAAIAKLHGVPVATRNIRHFQSFGVELINPWSG)
Target(s) [1]: S. epidermidis, M. luteus, P. mirabilis,; also recorded: E. coli, P. aeruginosa,; also recorded: C. albicans, MRSA, E. faecalis,; also recorded: C. jejuni

1T-200 (MRFKRFDRDYALSGDNVFEVLTASCDVIERNLSYREMCGLMQ)
Target(s) [2]: A. naeslundii, F. nucleatum, S. epidermidis,; also recorded: S. gordonii, S. mitis,; also recorded: S. mutans, S. oralis, S. salivarious,; also recorded: S. sanguinis

PF-149 (GKVSVLTRVPRSLGGAPANQ)
Target(s) [1]: S. epidermidis, M. luteus, E. coli,; also recorded: MRSA, C. jeikeium

PF-022 (MINELKNKNSGIMNNYVVTKESKL)
Target(s) [1]: M. luteus, P. mirabilis, E. coli, P. aeruginosa,; also recorded: C. albicans, MRSA,; also recorded: S. pneumoniae, E. faecalis, C. jeikeium,; also recorded: C. jejuni

1T-268 (PITPKKEKCGLGTYAPKNPVFSKSRV)
Target(s) [1]: F. nucleatum, S. mutans, S. oralis,; also recorded: S. sanguinis

TT-307 (NGDKKAKEELDKWDEVIKELNIQF)
Target(s) [1]: F. nucleatum

1T-74 (DIDWGRKISCAAGVAYGAIDGCATTV)
Target(s) [2]: S. pneumoniae

1T-3 (VLGIAGGLDAYGELVGGN)
Target(s) [2]: S. mutans, S. gordonii

PF-C290 (GNVHPESDFHNLIQFIKTFLYFTIFFKYFL)
Target(s) [3]: A. naeslundii, F. nucleatum, P. gingivalis,; also recorded: S. mutans, T. denticola

1T-63 (EPLILKELVRNLFLFCYARALR)
Target(s) [2]: S. aureus, S. epidermidis, C. jeikeium,; also recorded: C. xerosis, C. striatum,; also recorded: P. aeruginosa

PF-049 (AYYLKRREEKGK)
Target(s) [1]: S. epidermidis, MRSA, C. jeikeium,; also recorded: C. jejuni

PF-027 (HNARKYLEFISQKIDGDKLTKEDSL)
Target(s) [1]: M. luteus, MRSA, E. faecalis, C. jejuni

1T-280 (TNNKNKVIIKAIKFKNKDFINLDLFIYRR)
Target(s) [1]: A. naeslundii, F. nucleatum, P. gingivalis,; also recorded: T. denticola, S. gordonii,; also recorded: S. mitis, S. mutans, S. oralis,; also recorded: S. salivarious, S. sanguinis

1T-143 (MPKRHYYKLEAKALQFGLPFAYSPIQLLK)
Target(s) [2]: A. naeslundii, F. nucleatum, P. gingivalis,; also recorded: S. epidermidis, S. gordonii,; also recorded: S. mitis, S. mutans, S. oralis,; also recorded: S. salivarious, S. sanguinis

1T-108 (WGPLGPERPLW)
Target(s) [2]: S. gordonii, S. mitis, S. mutans,; also recorded: S. oralis, S. salivarious, S. sanguinis

PF-C050 (QGLARPVLRRIPL)
Target(s) [3]: A. naeslundii, S. mutans

1T-129 (YDKYIKYLSIQPPFIVYFI)
Target(s) [2]: A. naeslundii, P. gingivalis, S. epidermidis,; also recorded: S. gordonii, S. mitis,; also recorded: S. mutans, S. oralis, S. salivarious,; also recorded: S. sanguinis

1T-217 (MLSNVLSRSVVSPNVDIPNSMVILSPLLISISNYH)
Target(s) [2]: F. nucleatum, S. sanguinis

PF-055 (GHVFNGNNKRNL)
Target(s) [1]: S. mutans

PF-163 (TSWLRAAERQEIGEPTKTFGEKTTSL)
Target(s) [1]: S. epidermidis

1T-304 (STAGEASRRTASEASRRTAAKLRG)
Target(s) [1]: P. gingivalis

PF-C134 (NELMKYPATLTATATTPGIKYSHLCSVCL)
Target(s) [3]: A. naeslundii, F. nucleatum, P. gingivalis,; also recorded: S. mutans, T. denticola

PF-147 (RRPRRRRSGHGQSASAA)
Target(s) [1]: S. epidermidis, M. luteus, MRSA

PF-038 (MAYKDEGKETKFAVKGYKD)
Target(s) [1]: M. luteus

PF-127 (MLRYLSLFAVGLATGYAWGWIDGLAASLAV)
Target(s) [1]: S. epidermidis, M. luteus, E. coli,; also recorded: P. aeruginosa, C. albicans,; also recorded: MRSA, S. pneumoniae, E. faecalis

PF-C085 (KKFKIFVIINWFYHKYIILNFEENF)
Target(s) [3]: A. naeslundii, F. nucleatum, P. gingivalis,; also recorded: S. mutans, T. denticola

PF-C080 (INIPGLF)
Target(s) [3]: A. naeslundii, F. nucleatum, S. mutans

PF-786 (LSERERRRLKRGII)
Target(s) [3]: Mycobacteria spp.

PF-795 (ALHKSGIQVIADWVPDQIYN)
Target(s) [3]: S. mutans

PF-C271 (FFPSYYSIIITYF)
Target(s) [3]: A. naeslundii, F. nucleatum, P. gingivalis,; also recorded: S. mutans, T. denticola

PF-134 (GKAMKRQDCSAL)
Target(s) [1]: S. epidermidis, C. jeikeium

1T-171 (SVRAVKPIDKTVARHFPGDFIVN)
Target(s) [2]: A. naeslundii, F. nucleatum, P. gingivalis,; also recorded: S. epidermidis, S. gordonii,; also recorded: S. mitis, S. mutans, S. oralis,; also recorded: S. salivarious, S. sanguinis

PF-060 (HSSHL)
Target(s) [1]: C. albicans hyphae; also recorded: E. coli, C. albicans, C. jeikeium

PF-617 (PMNAAEPE)
Target(s) [1]: yeast and hyphal forms

1T-262 (LSLPLIVLTKSI)
Target(s) [1]: A. naeslundii, F. nucleatum, P. gingivalis,; also recorded: S. epidermidis, S. gordonii,; also recorded: S. mitis, S. mutans, S. oralis,; also recorded: S. salivarious, S. sanguinis

1T-35 (EICLTLVFPIRGSYSEAAKFPVPIHIVEDGTVELPK)
Target(s) [2]: P. aeruginosa

1T-95 (GHLLRVGGRVGGVGGVAGACAQPFGGQ)
Target(s) [2]: S. gordonii, S. mitis, S. mutans,; also recorded: S. oralis, S. sanguinis

1T-197 (TEILNFLITVCADRENWKIKHGLSDSVLLIFFARFTGAEYW)
Target(s) [2]: A. naeslundii, F. nucleatum, P. gingivalis,; also recorded: S. epidermidis, S. gordonii,; also recorded: S. mitis, S. mutans, S. oralis,; also recorded: S. salivarious, S. sanguinis

PF-007 (MGIIAGIIKVIKSLIEQFTGK)
Target(s) [1]: S. epidermidis, M. luteus, E. coli,; also recorded: P. aeruginosa, C. albicans,; also recorded: MRSA, S. pneumoniae, E. faecalis,; also recorded: C. jeikeium

PF-160 (SFHASLTKNEKPIKSTG)
Target(s) [1]: S. epidermidis

1T-234 (DNFYLILKMEERGKSKKTSQTRGFRAFFDIIRKKIKKEDGK)
Target(s) [2]: A. naeslundii, F. nucleatum, P. gingivalis,; also recorded: S. epidermidis, S. gordonii,; also recorded: S. mitis, S. mutans, S. oralis,; also recorded: S. salivarious, S. sanguinis

PF-039 (MLEEKNKSL)
Target(s) [1]: P. mirabilis, C. jeikeium

1T-140 (IKGTIAFVGEDYVEIRVDKGVKLTFRKSAIANVINNNQQ)
Target(s) [2]: A. naeslundii, F. nucleatum, P. gingivalis,; also recorded: S. epidermidis, S. gordonii,; also recorded: S. mitis, S. mutans, S. oralis,; also recorded: S. salivarious, S. sanguinis

1T-142 (FTQGIKRIVLKRLKED)
Target(s) [2]: A. naeslundii, F. nucleatum, P. gingivalis,; also recorded: T. denticola, S. gordonii,; also recorded: S. mitis, S. mutans, S. oralis,; also recorded: S. salivarious, S. sanguinis

PF-050 (SYYLKRREEKGK)
Target(s) [1]: S. epidermidis, M. luteus, E. coli,; also recorded: C. jeikeium

PF-C075 (KALVISVFAIVFSIIFVKFFYWRDKK)
Target(s) [3]: A. naeslundii, F. nucleatum, P. gingivalis,; also recorded: S. mutans, T. denticola

1T-285 (FFPYYLADFYKQLKFLNEYQTKNKDKVVEFK)
Target(s) [1]: A. naeslundii, F. nucleatum, P. gingivalis,; also recorded: S. gordonii, S. mitis,; also recorded: S. mutans, S. oralis, S. salivarious,; also recorded: S. sanguinis

PF-155 (GRYGDDSKERQGRAQ)
Target(s) [1]: C. jeikeium

1T-259 (EKLKKILLKLAVCGKAWYTL)
Target(s) [1]: F. nucleatum, P. gingivalis, T. denticola,; also recorded: S. mitis, S. mutans, S. oralis,; also recorded: S. sanguinis

PF-C095 (LLALNMNEDTYYFELFFIFDNQNKKWLIFDLKERG)
Target(s) [3]: A. naeslundii, F. nucleatum, P. gingivalis,; also recorded: S. mutans

1T-89 (HEDDKRRGMSVEVLGFEVVQHEE)
Target(s) [2]: S. mitis, S. mutans

1T-19 (PGAFRNPQMPRG)
Target(s) [2]: S. aureus, S. epidermidis, P. aeruginosa

1T-166 (AQSAGQIKRKSKVRIHV)
Target(s) [2]: A. naeslundii, F. nucleatum, P. gingivalis,; also recorded: S. epidermidis, S. gordonii,; also recorded: S. mitis, S. mutans, S. oralis,; also recorded: S. salivarious, S. sanguinis

1T-159 (IFSLHHFALICSEMGTFAVSKRAKYKWEVL)
Target(s) [2]: P. gingivalis

1T-207 (SPLEKYGTGSMTALTFLLGCCLLVLSKKSR)
Target(s) [2]: F. nucleatum, S. sanguinis

1T-222 (RIEASLISAIMFSMFNAIVKFLQK)
Target(s) [2]: F. nucleatum, S. sanguinis

TT-306 (KILNEAEGKLLKVIEKNGEIDIEEI)
Target(s) [1]: F. nucleatum

1T-136 (ELLTQIRLALLYSVNEW)
Target(s) [2]: A. naeslundii, F. nucleatum, P. gingivalis,; also recorded: S. epidermidis, S. gordonii,; also recorded: S. mitis, S. mutans, S. oralis,; also recorded: S. salivarious, S. sanguinis

1T-298 (ILNKKPKLPLWKLGKNYFRRFYVLPTFLA)
Target(s) [1]: A. naeslundii, F. nucleatum, P. gingivalis,; also recorded: T. denticola, S. gordonii,; also recorded: S. mitis, S. mutans, S. oralis,; also recorded: S. salivarious, S. sanguinis

PF-C145 (YGKESDP)
Target(s) [3]: A. naeslundii, F. nucleatum, P. gingivalis,; also recorded: S. mutans, T. denticola
